Patent US7842324B2 (Senomyx, Inc., priority 2005, dated 2010)

Target: T1, hT1R2/hT1R3 sweet receptor expressed in HEK293 cell line (Homo sapiens, UniProt Q7RTX0+Q8TE23)
T1 construct: expressed in transfected cells; host or cells: HEK293 derivative stably expressing Gα15 and hT1R2/hT1R3, clone S-9
T1 sequence (Q8TE23 20-839): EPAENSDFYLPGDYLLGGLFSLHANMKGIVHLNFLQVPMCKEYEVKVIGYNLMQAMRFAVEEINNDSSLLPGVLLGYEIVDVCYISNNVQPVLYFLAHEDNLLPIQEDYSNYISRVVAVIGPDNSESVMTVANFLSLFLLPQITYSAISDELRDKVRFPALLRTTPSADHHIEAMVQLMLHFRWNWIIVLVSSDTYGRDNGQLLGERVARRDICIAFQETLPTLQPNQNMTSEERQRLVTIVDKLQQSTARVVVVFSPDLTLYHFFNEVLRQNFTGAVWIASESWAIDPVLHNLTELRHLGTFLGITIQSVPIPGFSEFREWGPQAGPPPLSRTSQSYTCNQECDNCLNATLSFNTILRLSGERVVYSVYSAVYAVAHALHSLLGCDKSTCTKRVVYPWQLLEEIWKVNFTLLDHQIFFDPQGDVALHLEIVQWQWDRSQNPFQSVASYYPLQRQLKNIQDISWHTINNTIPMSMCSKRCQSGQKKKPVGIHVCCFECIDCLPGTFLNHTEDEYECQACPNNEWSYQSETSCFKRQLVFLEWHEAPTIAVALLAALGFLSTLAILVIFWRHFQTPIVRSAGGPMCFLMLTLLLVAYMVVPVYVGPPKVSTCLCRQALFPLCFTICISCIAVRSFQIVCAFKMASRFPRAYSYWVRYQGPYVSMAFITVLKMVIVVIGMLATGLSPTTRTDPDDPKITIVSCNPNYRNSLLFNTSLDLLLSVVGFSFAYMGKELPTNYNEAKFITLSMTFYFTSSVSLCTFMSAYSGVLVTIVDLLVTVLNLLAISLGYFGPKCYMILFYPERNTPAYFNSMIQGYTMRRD
T1 sequence (Q7RTX0 21-852): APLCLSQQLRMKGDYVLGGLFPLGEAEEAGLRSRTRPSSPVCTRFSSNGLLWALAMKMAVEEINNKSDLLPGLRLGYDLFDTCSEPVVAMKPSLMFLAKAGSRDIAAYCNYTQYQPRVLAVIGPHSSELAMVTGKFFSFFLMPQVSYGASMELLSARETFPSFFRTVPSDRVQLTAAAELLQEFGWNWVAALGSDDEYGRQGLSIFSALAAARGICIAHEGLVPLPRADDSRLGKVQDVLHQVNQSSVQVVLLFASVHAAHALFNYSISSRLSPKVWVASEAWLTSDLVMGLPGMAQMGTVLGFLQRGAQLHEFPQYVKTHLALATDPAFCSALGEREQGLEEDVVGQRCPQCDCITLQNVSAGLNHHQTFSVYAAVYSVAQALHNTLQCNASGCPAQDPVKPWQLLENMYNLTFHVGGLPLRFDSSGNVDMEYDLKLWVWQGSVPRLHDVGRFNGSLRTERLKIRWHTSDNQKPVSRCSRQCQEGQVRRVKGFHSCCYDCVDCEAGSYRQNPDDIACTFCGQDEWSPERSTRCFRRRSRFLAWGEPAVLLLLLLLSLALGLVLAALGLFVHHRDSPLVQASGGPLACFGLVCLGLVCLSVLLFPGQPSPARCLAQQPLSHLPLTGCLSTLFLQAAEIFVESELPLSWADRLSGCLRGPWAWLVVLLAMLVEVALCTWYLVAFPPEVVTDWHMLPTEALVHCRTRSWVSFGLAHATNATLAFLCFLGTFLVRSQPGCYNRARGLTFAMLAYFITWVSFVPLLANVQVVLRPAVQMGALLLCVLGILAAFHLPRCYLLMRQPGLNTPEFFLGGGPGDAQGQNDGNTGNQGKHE
Assay: In vitro hT1R2/hT1R3-HEK293 taste receptor activation assay (FLIPR)
Type: cell-based
Details: read-out: EC50 for activation of a hT1R2/hT1R3 sweet receptor expressed in HEK293 cell line
Outline: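 HEK293 cells stably expressing Gα15 and hT1R2/hT1R3 were loaded with Fluo-3AM (4 μM, 1 h, room temperature), then stimulated at room temperature in D-PBS. Peak fluorescence (ex 480/em 535 nm) was normalized to basal. Dose-responses were run in duplicate over 60 nM–30 μM, normalized to 400 mM D-fructose, and EC50 fitted by free-Hill non-linear regression.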

EC50: 150 nM
SMILES: CC(C)CNC(=O)C(C)(C)c1ccc(-c2cncc(C#N)c2)cc1 [Compound 23, 2-(4-(5-cyanopyridin-3-yl)phenyl)-N-isobutyl-2-methylpropanamide]
